This is an account of results in patent US6936585B2, “Corticotropin releasing factor 2 receptor agonists” (priority 2002, dated 2005).

Peptide text beside a SMILES is read from it.

One experiment concerns the target T1, CRF2R (Homo sapiens, UniProt Q13324).
T1 sequence (Q13324 1-411): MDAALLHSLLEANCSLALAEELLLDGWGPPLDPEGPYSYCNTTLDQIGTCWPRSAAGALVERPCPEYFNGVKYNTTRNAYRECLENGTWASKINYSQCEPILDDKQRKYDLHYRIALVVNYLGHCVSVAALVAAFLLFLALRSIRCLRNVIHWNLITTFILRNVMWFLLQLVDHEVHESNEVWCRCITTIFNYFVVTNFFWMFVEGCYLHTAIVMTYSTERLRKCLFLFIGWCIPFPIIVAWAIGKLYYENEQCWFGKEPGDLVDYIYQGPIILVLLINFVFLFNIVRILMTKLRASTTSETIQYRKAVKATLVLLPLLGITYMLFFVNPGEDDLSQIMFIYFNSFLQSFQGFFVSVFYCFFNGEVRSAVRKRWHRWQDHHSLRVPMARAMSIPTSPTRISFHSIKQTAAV
Nature of the experiment: CRF2R agonist activation (EC50 / Emax), called comparative CRF binding. In kind it is cell-based. To be noted: for EC50: read-out: CRF2R EC50; for Emax: read-out: CRF2R Emax. An outline of the steps: (§1)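 Cells expressing full-length human CRF1R or CRF2R were exposed to peptide or vehicle control, and receptor activation was gauged as cAMP induction. cAMP was measured in cell lysates or via a cAMP-responsive element driving a reporter gene such as luciferase, CAT, GFP or alkaline phosphatase.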

The target of another experiment is T2, CRF1R (Homo sapiens, UniProt P34998).
T2 sequence (P34998 24-415): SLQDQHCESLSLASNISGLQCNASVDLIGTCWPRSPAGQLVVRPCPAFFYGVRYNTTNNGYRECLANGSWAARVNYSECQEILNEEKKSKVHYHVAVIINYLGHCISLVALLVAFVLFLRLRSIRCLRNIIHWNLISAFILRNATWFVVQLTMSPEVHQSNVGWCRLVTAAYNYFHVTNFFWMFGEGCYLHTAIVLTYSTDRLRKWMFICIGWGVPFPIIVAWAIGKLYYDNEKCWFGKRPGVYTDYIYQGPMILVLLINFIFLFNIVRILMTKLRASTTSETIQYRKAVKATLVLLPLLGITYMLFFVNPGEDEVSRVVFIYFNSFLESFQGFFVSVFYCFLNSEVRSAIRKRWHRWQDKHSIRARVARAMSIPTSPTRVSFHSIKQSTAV
Description: CRF1R agonist activation (EC50 / Emax), called comparative CRF binding. The conditions noted are these: for EC50: read-out: CRF1R EC50; for Emax: read-out: CRF1R Emax. In kind it is cell-based. Put shortly:
as §1

Usually EC50 stands for the concentration that produces a half-maximal response. What is called Emax is the maximal effect, on the per cent scale that the assay sets. On to `CC[C@H](C)[C@H](NC(=O)[C@H](CCCNC(=N)N)NC(=O)[C@H](C)NC(=O)[C@H](CC(N)=O)NC(=O)[C@H](CCC(N)=O)NC(=O)[C@H](CCC(=O)O)NC(=O)[C@H](C)NC(=O)[C@H](CCCNC(=N)N)NC(=O)[C@H](CCC(=O)O)NC(=O)[C@H](CCCNC(=N)N)NC(=O)[C@H](CCC(N)=O)NC(=O)[C@H](CO)NC(=O)[C@H](CCC(N)=O)NC(=O)[C@@H](NC(=O)[C@H](CCCNC(=N)N)NC(=O)[C@H](C)NC(=O)[C@H](CC(C)C)NC(=O)[C@H](CCC(=O)O)NC(=O)[C@H](CC(C)C)NC(=O)[C@H](CC(C)C)NC(=O)[C@@H](NC(=O)[C@H](CCCNC(=N)N)NC(=O)[C@H](CC(C)C)NC(=O)[C@H](CC(C)C)NC(=O)[C@@H](NC(=O)[C@H](CC(C)C)NC(=O)[C@@H]1CCCN1C(=O)[C@H](CC(C)C)NC(=O)[C@H](CC(=O)O)NC(=O)[C@@H](NC(=O)[C@H](CO)NC(=O)[C@H](CC(C)C)NC(=O)[C@H](CO)NC(=O)[C@@H]1CCCN1C(=O)[C@H](CC(N)=O)NC(=O)[C@@H](N)CC(=O)O)[C@@H](C)CC)[C@@H](C)CC)[C@@H](C)O)[C@@H](C)O)C(=O)N[C@@H](Cc1ccccc1)C(=O)N[C@@H](C)C(=O)N[C@@H](CCCNC(=N)N)C(=O)N[C@H](C(N)=O)C(C)C` [compound 330] (H-DNPSLSIDLPLILLRTLLELARTQSQRERAEQNARIFARV-NH2; N-terminus assumed), for which, at CRF2R, the EC50 amounted to 6 nM and the Emax stood at 93.7%. Also, on CRF1R, the EC50 is not below 1000 nM and the maximal effect (Emax) came to 86.8%.

For the compound `CC[C@H](C)[C@H](NC(=O)[C@H](CCCNC(=N)N)NC(=O)[C@H](C)NC(=O)[C@H](CC(N)=O)NC(=O)[C@H](CCC(N)=O)NC(=O)[C@H](CCC(=O)O)NC(=O)[C@H](C)NC(=O)[C@H](CCCNC(=N)N)NC(=O)[C@H](CCC(=O)O)NC(=O)[C@H](CCCNC(=N)N)NC(=O)[C@H](CCC(N)=O)NC(=O)[C@H](CO)NC(=O)[C@H](CCC(N)=O)NC(=O)[C@@H](NC(=O)[C@H](CCCCN)NC(=O)[C@H](CCC(=O)O)NC(=O)[C@H](CC(C)C)NC(=O)[C@H](CCC(=O)O)NC(=O)[C@H](CC(C)C)NC(=O)[C@H](CC(C)C)NC(=O)[C@@H](NC(=O)[C@H](CCCNC(=N)N)NC(=O)[C@H](CC(C)C)NC(=O)[C@H](CC(C)C)NC(=O)[C@H](Cc1ccccc1)NC(=O)[C@H](CC(C)C)NC(=O)[C@@H]1CCCN1C(=O)[C@H](CC(C)C)NC(=O)[C@H](CC(=O)O)NC(=O)[C@@H](NC(=O)[C@H](CO)NC(=O)[C@H](CC(C)C)NC(=O)[C@H](CO)NC(=O)[C@@H]1CCCN1)[C@@H](C)CC)[C@@H](C)O)[C@@H](C)O)C(=O)N[C@@H](Cc1ccccc1)C(=O)N[C@@H](C)C(=O)N[C@@H](CCCNC(=N)N)C(=O)N[C@H](C(N)=O)C(C)C` [compound 331] (H-PSLSIDLPLFLLRTLLELEKTQSQRERAEQNARIFARV-NH2; N-terminus assumed), the Emax on CRF2R turned out to be 100%; on CRF1R it was 78.7%.

As for `CC[C@H](C)[C@H](NC(=O)[C@H](CCCNC(=N)N)NC(=O)[C@H](C)NC(=O)[C@H](CC(N)=O)NC(=O)[C@H](CCC(N)=O)NC(=O)[C@H](CCC(=O)O)NC(=O)[C@H](C)NC(=O)[C@H](CCCNC(=N)N)NC(=O)[C@H](CCC(=O)O)NC(=O)[C@H](CCCNC(=N)N)NC(=O)[C@H](CCC(N)=O)NC(=O)[C@H](CO)NC(=O)[C@H](CCC(N)=O)NC(=O)[C@@H](NC(=O)[C@H](CCCCN)NC(=O)[C@H](CCC(=O)O)NC(=O)[C@H](CC(C)C)NC(=O)[C@H](CCC(=O)O)NC(=O)[C@H](CC(C)C)NC(=O)[C@H](CC(C)C)NC(=O)[C@@H](NC(=O)[C@H](CCCNC(=N)N)NC(=O)[C@H](CC(C)C)NC(=O)[C@H](CC(C)C)NC(=O)[C@@H](NC(=O)[C@H](CC(C)C)NC(=O)[C@@H]1CCCN1C(=O)[C@H](CC(C)C)NC(=O)[C@H](CC(=O)O)NC(=O)[C@@H](NC(=O)[C@H](CO)NC(=O)[C@H](CC(C)C)NC(=O)[C@H](CO)NC(=O)[C@@H]1CCCN1)[C@@H](C)CC)[C@@H](C)CC)[C@@H](C)O)[C@@H](C)O)C(=O)N[C@@H](Cc1ccccc1)C(=O)N[C@@H](C)C(=O)N[C@@H](CCCNC(=N)N)C(=O)N[C@H](C(N)=O)C(C)C` [compound 332] (H-PSLSIDLPLILLRTLLELEKTQSQRERAEQNARIFARV-NH2; N-terminus assumed), the maximal response (Emax) at CRF2R is 100%; on CRF1R, 61.3%.

`CC[C@H](C)[C@H](NC(=O)[C@H](CCCNC(=N)N)NC(=O)[C@H](C)NC(=O)[C@H](CC(N)=O)NC(=O)[C@H](CCC(N)=O)NC(=O)[C@H](CCC(=O)O)NC(=O)[C@H](C)NC(=O)[C@H](CCCNC(=N)N)NC(=O)[C@H](CCC(=O)O)NC(=O)[C@H](CCCNC(=N)N)NC(=O)[C@H](CCC(N)=O)NC(=O)[C@H](CO)NC(=O)[C@H](CCC(N)=O)NC(=O)[C@@H](NC(=O)[C@H](CCCCN)NC(=O)[C@H](CCC(=O)O)NC(=O)[C@H](CC(C)C)NC(=O)[C@H](CCC(=O)O)NC(=O)[C@H](CC(C)C)NC(=O)[C@H](CC(C)C)NC(=O)[C@@H](NC(=O)[C@H](CCCNC(=N)N)NC(=O)[C@H](CC(C)C)NC(=O)[C@H](CC(C)C)NC(=O)[C@H](CC(C)C)NC(=O)[C@H](CC(C)C)NC(=O)[C@@H]1CCCN1C(=O)[C@H](CC(C)C)NC(=O)[C@H](CC(=O)O)NC(=O)[C@@H](NC(=O)[C@H](CO)NC(=O)[C@H](CC(C)C)NC(=O)[C@H](CO)NC(=O)[C@@H]1CCCN1)[C@@H](C)CC)[C@@H](C)O)[C@@H](C)O)C(=O)N[C@@H](Cc1ccccc1)C(=O)N[C@@H](C)C(=O)N[C@@H](CCCNC(=N)N)C(=O)N[C@H](C(N)=O)C(C)C` [compound 333] (H-PSLSIDLPLLLLRTLLELEKTQSQRERAEQNARIFARV-NH2; N-terminus assumed): on CRF2R, the concentration for a half-maximal effect (EC50) turned out to be 9.85 nM and the Emax was found to be 96.9%. Further, at CRF1R, the concentration giving a half-maximal response (EC50) was not below 1000 nM and the Emax amounted to 43.8%.

Turning to `CC[C@H](C)[C@H](NC(=O)[C@H](CCCNC(=N)N)NC(=O)[C@H](C)NC(=O)[C@H](CC(N)=O)NC(=O)[C@H](CCC(N)=O)NC(=O)[C@H](CCC(=O)O)NC(=O)[C@H](C)NC(=O)[C@H](CCCNC(=N)N)NC(=O)[C@H](CCC(=O)O)NC(=O)[C@H](CCCNC(=N)N)NC(=O)[C@H](CCC(N)=O)NC(=O)[C@H](CO)NC(=O)[C@H](CCC(N)=O)NC(=O)[C@@H](NC(=O)[C@H](CCCCN)NC(=O)[C@H](CCC(=O)O)NC(=O)[C@H](CC(C)C)NC(=O)[C@H](CCC(=O)O)NC(=O)[C@H](CC(C)C)NC(=O)[C@H](CC(C)C)NC(=O)[C@@H](NC(=O)[C@H](CCCNC(=N)N)NC(=O)[C@H](CC(C)C)NC(=O)[C@H](CC(C)C)NC(=O)[C@H](Cc1ccccc1)NC(=O)[C@H](CC(C)C)NC(=O)[C@@H]1CCCN1C(=O)[C@H](CC(C)C)NC(=O)[C@H](CC(=O)O)NC(=O)[C@@H](NC(=O)[C@H](CO)NC(=O)[C@H](CC(C)C)NC(=O)[C@H](CO)NC(=O)[C@@H]1CCCN1C(=O)[C@H](CC(N)=O)NC(=O)[C@@H](N)CC(=O)O)[C@@H](C)CC)[C@@H](C)O)[C@@H](C)O)C(=O)N[C@@H](Cc1ccccc1)C(=O)N[C@@H](C)C(=O)N[C@@H](CCCNC(=N)N)C(=O)N[C@H](C(N)=O)C(C)C` [compound 334] (H-DNPSLSIDLPLFLLRTLLELEKTQSQRERAEQNARIFARV-NH2; N-terminus assumed), on CRF2R, the EC50 came out at 13.2 nM and the Emax amounted to 93.5%. At CRF1R, the EC50 is not below 1000 nM and the maximal effect (Emax) was 82.6%.

As to `CC[C@H](C)[C@H](NC(=O)[C@H](CCCNC(=N)N)NC(=O)[C@H](C)NC(=O)[C@H](CC(N)=O)NC(=O)[C@H](CCC(N)=O)NC(=O)[C@H](CCC(=O)O)NC(=O)[C@H](C)NC(=O)[C@H](CCCNC(=N)N)NC(=O)[C@H](CCC(=O)O)NC(=O)[C@H](CCCNC(=N)N)NC(=O)[C@H](CCC(N)=O)NC(=O)[C@H](CO)NC(=O)[C@H](CCC(N)=O)NC(=O)[C@@H](NC(=O)[C@H](CCCCN)NC(=O)[C@H](CCC(=O)O)NC(=O)[C@H](CC(C)C)NC(=O)[C@H](CCC(=O)O)NC(=O)[C@H](CC(C)C)NC(=O)[C@H](CC(C)C)NC(=O)[C@@H](NC(=O)[C@H](CCCNC(=N)N)NC(=O)[C@H](CC(C)C)NC(=O)[C@H](CC(C)C)NC(=O)[C@@H](NC(=O)[C@H](CC(C)C)NC(=O)[C@@H]1CCCN1C(=O)[C@H](CC(C)C)NC(=O)[C@H](CC(=O)O)NC(=O)[C@@H](NC(=O)[C@H](CO)NC(=O)[C@H](CC(C)C)NC(=O)[C@H](CO)NC(=O)[C@@H]1CCCN1C(=O)[C@H](CC(N)=O)NC(=O)[C@@H](N)CC(=O)O)[C@@H](C)CC)[C@@H](C)CC)[C@@H](C)O)[C@@H](C)O)C(=O)N[C@@H](Cc1ccccc1)C(=O)N[C@@H](C)C(=O)N[C@@H](CCCNC(=N)N)C(=O)N[C@H](C(N)=O)C(C)C` [compound 335] (H-DNPSLSIDLPLILLRTLLELEKTQSQRERAEQNARIFARV-NH2; N-terminus assumed), the EC50 on CRF2R is 28 nM; on CRF1R it was not below 1000 nM. Besides, the results for the Emax at CRF2R and at CRF1R were 91% and 49.5%, respectively.
